Like-named read-outs stand apart in the source and are kept apart here.

By MIC is commonly meant the lowest concentration found to suppress growth.

Series [1] has as its system Staphylococcus aureus MSSA (SH1000). Briefly: Minimum inhibitory concentration (MIC), broth microdilution. Format: cell-based. Here is the method: (§1) The term “minimum inhibitory concentration (MIC)” means the lowest concentration of an antimicrobial agent that will inhibit the visible growth of a microorganism after overnight incubation. MIC values against bacteria, for example, the Gram-positive Staphylococcus aureus and Enterococcus faecalis and the Gram-negative Escherichia coli and Pseudomonas aeruginosa were determined by standard methods.
(§2) With nearly three-dozen amphiphiles varying in structure and cationic nature synthesized, minimum inhibitory concentration (MIC) values against the Gram-positive Staphylococcus aureus and Enterococcus faecalis and the Gram-negative Escherichia coli and Pseudomonas aeruginosa were determined by standard methods. […] The commercially available antibacterial agent benzalkonium chloride (benzyldimethyldodecylammonium chloride, Bn,12) was tested for comparison. The broth microdilution for determining MIC values was performed as previously reported.
(§3) Different biological assays were performed. […] All cultures, with the exception of E. faecalis, were grown with shaking at 250 rpm.
(§4) Minimum inhibitory concentration (MIC) values against bacteria were measured using standard method. Compounds were serially diluted two-fold from an aqueous stock solution to yield twelve test concentrations. Overnight S. aureus, E. faecalis, E. coli, P. aeruginosa, CA-MRSA, and HA-MRSA cultures diluted to ca. 10^6 cfu/mL in Mueller-Hinton media and 100 μL were inoculated into each well of a U-bottom 96-well plate (BD Biosciences, BD351177) containing 100 μL of compound solution. Plates were incubated statically at 37° C. for 72 hours upon which time wells were evaluated visually for bacterial growth. The MIC was determined as the lowest concentration of compound resulting in no bacterial growth visible to the naked eye, based on the majority of three independent experiments. Positive and negative aqueous and media controls were conducted for each trial.
A general note: In broth dilution the organism is exposed to a series of concentrations in liquid medium.

The test system of the next series is CA-MRSA (USA300-0114). The series is described as above. Format: cell-based, Staphylococcus aureus. To be noted: Table 4, USA300-0114, read-out: MIC CA-MRSA. The procedure: as §3, §4
The next series deals with HA-MRSA (ATCC 33591). The description is as above. Format: cell-based, Staphylococcus aureus. To be noted: Table 4, ATCC 33591, read-out: MIC HA-MRSA. Here is the method:
as §3, §4

Series [2] relates to S. aureus (MSSA, SH1000) biofilms. Description: Minimum biofilm eradication concentration (MBEC), regrowth assay. Format: cell-based, Staphylococcus aureus. To be noted: for MBEC MSSA: Table 5, SH1000. The source says:
(§5) A regrowth assay was used to establish the MBEC of a compound to evaluate the antibiofilm activity. See also H. Ceri, M. Olson, D. Morck, D. Storey, R. Read, A. Buret, B. Olson, Methods Enzymol. 2001, 337, 377.
(§6) Encouraged by the potency of the QACs against planktonic bacterial cells, the inventors then evaluated the efficacy of compound (12,2,12) against Staphylococcus aureus and Enterococcus faecalis biofilms. […] To both accurately evaluate the antibiofilm activity, a regrowth assay was utilized to establish the minimum biofilm eradication concentration (MBEC) of each compound.
(§7) Different biological assays were performed. For all biological assays, laboratory strains of methicillin-susceptible Staphylococcus aureus MSSA (SH1000), Enterococcus faecalis (OG1RF), Escherichia coli (MC4100), Pseudomonas aeruginosa (PAO1), community-acquired methicillin-resistant Staphylococcus aureus CA-MRSA (USA300-0114), and hospital-acquired methicillin-resistant Staphylococcus aureus HA-MRSA (ATCC 33591) were grown at 37° C. overnight from freezer stocks in 10 mL of the media indicated for each assay. All cultures, with the exception of E. faecalis, were grown with shaking at 250 rpm.
(§8) Minimum biofilm eradication concentration (MBEC) was also measured. To each well of a flat-bottomed 96-well plate (Corning 3370), 8 μL of overnight bacterial culture was brought to a volume of 200 μL with fresh media (BHI for S. aureus and MRSA, Todd Hewitt (TH) for E. faecalis). Plates were incubated statically for 24 hours at 37° C. to establish biofilms. After 24 hours, the wells were carefully emptied by inverting the plate and gently shaking. A pre-mixed solution of media and aqueous compound stock solution was added to each well and plates were incubated at 37° C. 16 hours after pre-established biofilms were treated with compound, the media from each well was removed, biofilms were washed three times with 200 μL PBS to remove planktonic cells, and biofilms were incubated overnight at 37° C. in 200 μL of fresh media to allow any viable cells to continue growing. The wells were then vigorously pipetted to resuspend the biofilm cells and the OD at 595 nm was measured using a plate reader (POLARstar Omega, BMG Labtech). Biofilms reaching a final OD of less than 0.1 were considered eradicated and the lowest concentration of antibiotic corresponded to the MBEC. Four replicates were completed for each concentration of compound as well as positive and negative controls.

The subject of another series is E. faecalis biofilms. The series is described as above. Format: cell-based, Enterococcus faecalis.
Source text: as §5, §6, §7, §8

For series [3], the system named is CA-MRSA (USA300-0114) biofilms. Described as above. In kind it is cell-based, Staphylococcus aureus. As to conditions: Table 5; USA300-0114. Here is the method:
as §5, §7, §8

Series [4] has as its system red blood cells (defibrinated sheep blood). Description: Hemolysis assay (Lysis20). To be noted: for Lysis20: Table 4, concentration at which less than 20% of red blood cells are lysed. Here is the method: Hemolysis assays (Lysis20) were performed according to the procedure detailed in Peng, L., DeSousa, J., Su, Z., Novak, B. M., Nevzorov, A. A., Garland, E. R., and Melander, C., Inhibition of Acinetobacter baumannii biofilm formation on a methacrylate polymer containing a 2-aminoimidazole subunit, Chem. Comm. 2011, 47, 4896-4898. Defibrinated sheep blood was purchased from Hemostat Labs (DSB 100). Compounds representative of each class were serially diluted in sterile PBS from aqueous stock solutions and incubated with resuspended blood cells. The OD of the final suspensions were measured directly using plate reader. TritonX (1% by volume) served as a positive control (100% lysis marker) and sterile PBS served as a negative control (0% lysis marker).
Lysis20 indicates the concentration of compound (in μM) at which less than 20% of red blood cells are lysed.

The subject of series [5] is Enterococcus faecalis (OG1RF). Briefly: Minimum inhibitory concentration (MIC), broth microdilution. Format: cell-based. As to conditions: Enterococcus faecalis, read-out: MIC E. faecalis. Here is the method: as §1, §2, §3, §4
Series [6] concerns Escherichia coli (MC4100). The description is as above. In kind it is cell-based. To be noted: Escherichia coli, read-out: MIC E. coli. The procedure: as §1, §2, §3, §4
Series [7] concerns Pseudomonas aeruginosa (PAO1). Described as above. To be noted: Pseudomonas aeruginosa, PAO1, read-out: MIC P. aeruginosa. In kind it is cell-based. Here is the method: as §1, §2, §3, §4
Setting [8] is: Staphylococcus aureus, MSSA, Table 4, SH1000, read-out: MIC MSSA.
Setting [9] is: Table 4, SH1000, read-out: MIC MSSA.
The mark [10] stands for this setting: Table 2, pre-established biofilm, ± values varied between 50 and 100 μM for the six trials.

As for `CCCCCCCCCC[N+](C)(C)CCCN(C)CCC[N+](C)(C)CCCCCCCCCC` [10,3,0,3,10], the MIC in series [1] (setting [8]) amounted to 1 µM; in the series on CA-MRSA (USA300-0114) (Staphylococcus aureus), 2 µM; with HA-MRSA (ATCC 33591) (Staphylococcus aureus), 2 µM. Also, the “MBEC MSSA” value in series [2] was 150 ± 50 µM. In addition, in the series on E. faecalis biofilms (Table 5), the “MBEC E. faecalis” value turned out to be 50 µM. In series [3], the “MBEC CA-MRSA” value was determined as 150 ± 50 µM. For the same compound, the Lysis20 in series [4] worked out at 32 µM. Moreover, in series [4] (among the multiQACs evaluated), the “prokaryotic selectivity (lytic profile vs MIC, in words)” value (shortened to “prokaryotic selectivity”) is listed as “highest prokaryotic selectivity”.

In the case of `CCCCCCCCCC[N+](C)(C)CCC[N+](C)(CC)CCC[N+](C)(C)CCCCCCCCCC` [10,3,2,3,10], the MIC (in series [1] (setting [8]); in the series on CA-MRSA (USA300-0114) (Staphylococcus aureus); with HA-MRSA (ATCC 33591) (Staphylococcus aureus)) was 2 µM each time. Moreover, the “MBEC MSSA” value in series [2] came out at 200 µM. Also, the “MBEC E. faecalis” value with E. faecalis biofilms (Table 5) was 100 µM. Besides, the “MBEC CA-MRSA” value in [3] was determined as 150 ± 50 µM. The Lysis20 in series [4] was 32 µM. In addition, in [4] (among the multiQACs evaluated), the “prokaryotic selectivity” value was “highest prokaryotic selectivity”.

Turning to `CCCCCCCCCC[N+](C)(C)CCCCCCCCCC.[Cl-]` [10,10, reference compound], the values for the MIC (in series [1] (setting [9]); in the series with CA-MRSA (USA300-0114); in the series with HA-MRSA (ATCC 33591)) were 1 µM, 4 µM and 2 µM, respectively. Besides, in series [2], the “MBEC MSSA” value turned out to be 150 ± 50 µM. Also, in the series with E. faecalis biofilms (Table 5), the “MBEC E. faecalis” value is above 200 µM. In addition, the “MBEC CA-MRSA” value in [3] is at least 200 µM. The compound further yielded a Lysis20 in series [4] of 16 µM.

Turning to `CCCCCCCCCCCC[N+](C)(C)CCCN(C)C.[Br-]` [12,3,0], the figures for the MIC (in series [1] (setting [9]); in the series with CA-MRSA (USA300-0114); in the series with HA-MRSA (ATCC 33591)) were 4 µM, 8 µM and 4 µM, respectively. Besides, in series [2], the “MBEC MSSA” value is above 200 µM. For the same compound, in the series with E. faecalis biofilms (Table 5), the “MBEC E. faecalis” value is above 200 µM. Also, the “MBEC CA-MRSA” value in [3] is above 200 µM. The compound further came in with a Lysis20 in series [4] of 32 µM.

Consider `CCCCCCCCCCCCCCCC[N+](C)(C)CCN(C)C.[Br-]` [16,2,0], for which the MIC turned out to be 1 µM in series [1] (setting [9]), 4 µM with CA-MRSA (USA300-0114) and 2 µM in the series on HA-MRSA (ATCC 33591). Further, in [2], the “MBEC MSSA” value came out at 100 µM. Further, in the series with E. faecalis biofilms (Table 5), the “MBEC E. faecalis” value is 50 µM. The “MBEC CA-MRSA” value in [3] was above 200 µM. In addition, the Lysis20 in series [4] stood at 16 µM.

Take `CCCCCCCCCCCC[n+]1cccc(-c2ccc[n+](CCCCCCCCCCCC)c2)c1.[Br-].[Br-]` [MQ-12,12]: the minimal inhibitory concentration (MIC) in series [1] (setting [9]) is listed as 1 µM; with CA-MRSA (USA300-0114), 2 µM; in the series on HA-MRSA (ATCC 33591), 1 µM. Moreover, the “MBEC MSSA” value in [2] was 100 µM. Further, the “MBEC E. faecalis” value with E. faecalis biofilms (Table 5) amounted to 100 µM. For the same compound, the “MBEC CA-MRSA” value in series [3] is 100 µM. Also, the Lysis20 in series [4] worked out at 8 µM.

As to `CCCCCCCCCCCC[n+]1cccc(-c2ccc[n+](Cc3ccccc3)c2)c1.[Br-].[Br-]` [MQ-12,Bn], the MIC in series [1] (setting [9]) was found to be 8 µM; with CA-MRSA (USA300-0114), 16 µM; with HA-MRSA (ATCC 33591) it was 16 µM. Moreover, the “MBEC MSSA” value in series [2] was above 200 µM. Also, the “MBEC E. faecalis” value with E. faecalis biofilms (Table 5) was above 200 µM. Further, the “MBEC CA-MRSA” value in series [3] is above 200 µM. For the same compound, the “prokaryotic selectivity” value in [4] is on record as “highest prokaryotic selectivity”. In series [4], this compound came in with a Lysis20 of 125 µM.

Consider `CCCCCCCCCCCC[n+]1ccc(-c2ccc[n+](CCCCCCCCCCCC)c2)cc1.[Br-].[Br-]` [PMQ-12,12], for which the minimal inhibitory concentration (MIC) (in [1] (setting [9]); with CA-MRSA (USA300-0114); in the series on HA-MRSA (ATCC 33591)) was 1 µM throughout. Besides, in [2], the “MBEC MSSA” value came out at 100 µM. Further, the “MBEC E. faecalis” value in the series on E. faecalis biofilms (Table 5) was determined as 100 µM. In addition, the “MBEC CA-MRSA” value in series [3] was found to be 150 ± 50 µM. Besides, the Lysis20 in series [4] came out at 8 µM.

Turning to `CCCCCCCCCCC[n+]1ccc(-c2cc[n+](CCCCCCCCCCC)cc2)cc1` [PQ-11,11], the minimum inhibitory concentration (MIC) is 1 µM in series [5]; 1 µM in [6]; 4 µM in series [7]; 1 µM in series [1] (Staphylococcus aureus, MSSA, read-out: MIC S. aureus). The “MBEC S. aureus” value in series [2] (setting [10]) is 50 µM. For the same compound, the “MBEC E. faecalis” value with E. faecalis biofilms (setting [10]) is 50 µM.

Values taken from US10398142B2, “Polycationic amphiphiles as antimicrobial agents” (priority 2013, dated 2019).
